Assay results as given in PMC6691788, “Design and synthesis of phthalazine-based compounds as potent anticancer agents with potential antiangiogenic activity via VEGFR-2 inhibition” (Journal of Enzyme Inhibition and Medicinal Chemistry, 2019).

Key:
Experiment in all cases: NCI 60 cell panel SRB screen
CCRF-CEM = type: cell-based, human; settings: Homo sapiens, single dose 10 μM, read-out: percent cell growth promotion
HL-60(TB) = type: cell-based; settings: Homo sapiens, single dose 10 μM, read-out: percent cell growth promotion
RPMI-8226 = type: cell-based; settings: Homo sapiens; RPMI-8226, single dose 10 μM; read-out: percent cell growth promotion
SR = type: cell-based; settings: Homo sapiens, single dose 10 μM, read-out: percent cell growth promotion
NCI-H226 = type: cell-based; settings: Homo sapiens; NCI-H226, single dose 10 μM; read-out: percent cell growth promotion
NCI-H23 = type: cell-based; settings: Homo sapiens; NCI-H23, single dose 10 μM; read-out: percent cell growth promotion
HCC-2998 = type: cell-based; settings: Homo sapiens; HCC-2998, single dose 10 μM; read-out: percent cell growth promotion
HCT-116 = type: cell-based; settings: Homo sapiens; HCT-116, single dose 10 μM; read-out: percent cell growth promotion
HCT-15 = type: cell-based; settings: Homo sapiens; HCT-15, single dose 10 μM; read-out: percent cell growth promotion
KM12 = type: cell-based; settings: Homo sapiens; KM12, single dose 10 μM; read-out: percent cell growth promotion
SF-295 = type: cell-based; settings: Homo sapiens; SF-295, single dose 10 μM; read-out: percent cell growth promotion
SNB-19 = type: cell-based; settings: Homo sapiens; SNB-19, single dose 10 μM; read-out: percent cell growth promotion
MALME-3M = type: cell-based; settings: Homo sapiens, Malme-3M, read-out: percent cell growth promotion
UACC-62 = type: cell-based; settings: Homo sapiens, UACC-62, read-out: percent cell growth promotion
OVCAR-3 = type: cell-based; settings: Homo sapiens; OVCAR-3, single dose 10 μM; read-out: percent cell growth promotion
786-0 = type: cell-based; settings: Homo sapiens; 786-0, single dose 10 μM; read-out: percent cell growth promotion
RXF 393 = type: cell-based; settings: Homo sapiens; RXF 393, single dose 10 μM; read-out: percent cell growth promotion
PC-3 = type: cell-based; settings: Homo sapiens; PC-3, single dose 10 μM; read-out: percent cell growth promotion
MCF7 = type: cell-based; settings: Homo sapiens, MCF7, read-out: percent cell growth promotion

| Compound | activity at 10 µM (CCRF-CEM) [%] | activity at 10 µM (HL-60(TB)) [%] | activity at 10 µM (RPMI-8226) [%] | activity at 10 µM (SR) [%] | activity at 10 µM (NCI-H226) [%] | activity at 10 µM (NCI-H23) [%] | activity at 10 µM (HCC-2998) [%] | activity at 10 µM (HCT-116) [%] | activity at 10 µM (HCT-15) [%] | activity at 10 µM (KM12) [%] | activity at 10 µM (SF-295) [%] | activity at 10 µM (SNB-19) [%] | activity at 10 µM (MALME-3M) [%] | activity at 10 µM (UACC-62) [%] | activity at 10 µM (OVCAR-3) [%] | activity at 10 µM (786-0) [%] | activity at 10 µM (RXF 393) [%] | activity at 10 µM (PC-3) [%] | activity at 10 µM (MCF7) [%] |
| --- | --- | --- | --- | --- | --- | --- | --- | --- | --- | --- | --- | --- | --- | --- | --- | --- | --- | --- | --- |
| O=C(Nc1ccc(Nc2nncc3ccccc23)cc1)c1ccc(Cl)cc1 [Compound 5b, 4-Chloro-N-(4-(phthalazin-1-ylamino)phenyl)benzamide] | 103 | 103 | 104 | 95 | 77.9 | 98.5 | 113 | 100 | 109 | 103 | 102 | 104 | 99.6 | 89.8 | 101 | 107 | 115 | 91.6 | 93 |
| Cc1nnc(Nc2ccc(NC(=O)c3ccc(Cl)cc3)cc2)c2ccccc12 [Compound 5d, 4-Chloro-N-(4–(4-methylphthalazin-1-ylamino)phenyl)benzamide] | 91 | 103 | 89.3 | 86.3 | 76.3 | 95 | 125 | 92.2 | 101 | 101 | 105 | 92 | 99 | 95.9 | 93.3 | 109 | 98.7 | 72.6 | 84.5 |
